Test results: article PMC6269736, “Antimalarial Activity of 4-Metoxychalcones: Docking Studies as Falcipain/Plasmepsin Inhibitors, ADMET and Lipophilic Efficiency Analysis to Identify a Putative Oral Lead Candidate” (Molecules, 2013)
Read-outs that look alike come from different tables or passages of the source. One block for each compound: values may come before it.

Legend:
[1] = tested on: P. falciparum clone W2 (chloroquine-resistant); experiment: In vitro antiplasmodial activity, Giemsa-stained smear parasitaemia after 48 h; assay type: cell-based, Plasmodium falciparum; details: for IC50: Plasmodium falciparum; for SI (selectivity index): SI = LC50 HeLa/IC50 Plasmodium falciparum
Description: The human red blood cells and plasma were ceded by the Fundação Hemominas-Hemonúcleo Divinópolis. The synchronization of the parasites was achieved by sorbitol treatment and parasitaemia was determined microscopically in Giemsa-stained smears.
Briefly, ring-stage parasites in sorbitol-synchronized blood cultures were added to 96-well culture plates with 2% parasitaemia and 2% haematocrit and then incubated with the test compounds. The compounds were diluted in complete media, from 10 mg/mL stock solutions in DMSO, at various concentrations (0.1–30 µM). After 48 h incubation, Giemsa-stained blood smears were taken for microscopic evaluation of parasitaemia. All experiments were performed in triplicate.

[2] = in vitro; assay type: cell-based; details: human
Description: The cytotoxicity of the compounds was assessed with the HeLa human cell line (cervix adenocarcinoma ATCC# CCl-2) using the MTT (3-(4,5-dimethylthiazol-2-yl)-2,5-diphenyltetrazolium bromide) (Sigma, St. Louis, MO, USA) colorimetric method. Briefly, the cells were plated in 96-well plates (1 × 10^5 cells/well) and incubated for 24 h at 37 °C in a humidified atmosphere with 5% CO2. After 24 h, the wells were washed with culture medium (RPMI + 10% inactivated fetal calf serum + 2 mM L-glutamine) and incubated with the compounds at various concentrations (0.05 to 500 µM). After 48 h incubation, the plates were treated with MTT. The colorimetric reading was performed in a microplate reader Spectramax M5e (Molecular Devices, Sunnyvale, CA, USA) at 550 nm. Cytotoxicity was scored as the percentage reduction in absorbance versus untreated control cultures. All experiments were performed in triplicate. […] The IC50 and LC50 values were calculated using OriginPro8.0 (OriginLab Corporation, Northampton, MA, USA) software. A selectivity index (SI), corresponding to the ratio between the cytotoxic and antiparasitic activities of each compound, was calculated as follows: SI = LC50 HeLa/IC50 Plasmodium falciparum

[3] = P. falciparum W2, 48 h incubation, triplicate, mean ± spread, read-out: IC50, in vitro antiplasmodial activity
[4] = P. falciparum W2, from IC50, read-out: pIC50 (converted)

SMILES: CCN(CC)CCCC(C)Nc1ccnc2cc(Cl)ccc12 (centres unmarked) [CQ, chloroquine, reference compound]
IC50 ([1]; W2, 48 h, read-out: IC50, in vitro antiplasmodial activity): 0.45 ± 0.04 µM
IC50 ([1]; W2, read-out: pIC50 (converted)): 0.454 µM

SMILES: COc1ccc(/C=C/C(=O)c2ccccc2)cc1S(=O)(=O)N1CCOCC1 [Compound 1a]
CC50 at 48 h [2]: 18.6 ± 1.26 µM
IC50 [1, 3]: 2.06 ± 0.05 µM
IC50 [1, 4]: 2.07 µM
SI (selectivity index) [1]: 9.0

SMILES: COc1ccc(/C=C/C(=O)c2ccccc2)cc1S(=O)(=O)Nc1ccccc1 [Compound 1c]
CC50 at 48 h [2]: 11.5 ± 0.23 µM
IC50 [1, 3]: 2.03 ± 0.28 µM
IC50 [1, 4]: 2.03 µM
SI (selectivity index) [1]: 5.7

SMILES: COc1ccc(/C=C/C(=O)c2ccccc2)cc1S(=O)(=O)Nc1ccc(Cl)c(Cl)c1 [Compound 1f]
CC50 at 48 h [2]: 19 ± 0.43 µM
IC50 [1, 3]: 4.33 ± 0.06 µM
IC50 [1, 4]: 4.33 µM
SI (selectivity index) [1]: 4.4

SMILES: COc1ccc(/C=C/C(=O)c2ccccc2)cc1S(=O)(=O)NCc1ccccc1 [Compound 1h]
CC50 at 48 h [2]: 9.42 ± 2.09 µM
IC50 [1, 3]: 1.96 ± 0.02 µM
IC50 [1, 4]: 1.96 µM
SI (selectivity index) [1]: 4.8

SMILES: COc1ccc(/C=C/C(=O)c2ccccc2)cc1S(=O)(=O)N1CCCC1 [Compound 1i]
CC50 at 48 h [2]: 9.18 ± 1.51 µM
IC50 [1, 3]: 2.07 ± 0.22 µM
IC50 [1, 4]: 2.07 µM
SI (selectivity index) [1]: 4.4

The remaining compounds from weak to strong by IC50 [1, 3], led by results:

IC50 [1, 3]: 11 ± 0.57 µM
IC50 [1, 4]: 11 µM
SMILES: CCN(CC)S(=O)(=O)c1cc(/C=C/C(=O)c2ccccc2)ccc1OC [Compound 1g]
CC50 at 48 h [2]: 20.7 ± 1.6 µM
SI (selectivity index) [1]: 1.9

IC50 [1, 3]: 5.79 ± 0.12 µM
IC50 [1, 4]: 5.79 µM
SMILES: COc1ccc(/C=C/C(=O)c2ccccc2)cc1S(=O)(=O)N(C)C [Compound 1b]
CC50 at 48 h [2]: 20.7 ± 1.62 µM
SI (selectivity index) [1]: 3.6

IC50 [1, 3]: 3.64 ± 0.4 µM
IC50 [1, 4]: 3.64 µM
SMILES: COc1ccc(NS(=O)(=O)c2cc(/C=C/C(=O)c3ccccc3)ccc2OC)cc1 [Compound 1d]
CC50 at 48 h [2]: 11.1 ± 1.96 µM
SI (selectivity index) [1]: 3.0

IC50 [1, 3]: 2.83 ± 0.21 µM
IC50 [1, 4]: 2.82 µM
SMILES: COc1ccc(/C=C/C(=O)c2ccccc2)cc1S(=O)(=O)Nc1ccc(Cl)cc1 [Compound 1e]
CC50 at 48 h [2]: 10.5 ± 2.27 µM
SI (selectivity index) [1]: 3.7
